{"source": "paper PMC5515969", "about": "“Effects of 31 FDA approved small-molecule kinase inhibitors on isolated rat liver mitochondria” (Archives of Toxicology, 2016); for RCC V at 5XCmax: key: 0 indicates that the drug had no effects (negative); for State 3 respiration driven by succinate at 10XCmax: key: 0 indicates that the drug had no effects (negative); for State 3 respiration driven by succinate at 1XCmax: key: 0 indicates that the drug had no effects (negative)", "key": {"[1]": {"test_system": "isolated rat liver mitochondria", "conditions": "positive control alamethicin treated samples"}, "RCC I": {"test_system": "RCC I", "assay": "RCC I activity in submitochondrial particles", "type": "biochemical, rat", "set-up": "key to RCC I at 10XCmax / RCC I at 100XCmax / RCC I at 50XCmax / RCC I at 30XCmax / RCC I at 20XCmax: activity relative to DMSO-treated controls (control set as 1 = 100%)", "outline": "(§1)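 Inhibitors preincubated 15 min with submitochondrial particles (1 mg/ml) before activity readout. RCC I (rotenone-sensitive fraction) and I/V: A340, and RCC II: A600, each every 1 min for 6 min; RCC III/IV: A550 every 10 s for 2 min. Activities relative to DMSO control set as 1.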"}, "[2]": {"conditions": "therapeutic maximal blood concentration; ref product labeling; cited from earlier work"}, "[3]": {"test_system": "isolated rat liver mitochondria", "assay": "Mitochondrial inner membrane potential (MMP), Rhodamine 123", "type": "biochemical", "conditions": "difference in signal between KI and DMSO treated samples at the end of experiments", "text": "Fig. 3 KI effects on mitochondrial inner membrane potential (MMP). […] In a, c, data are means and standard derivations from three separate experiments. *p < 0.05 as compared to DMSO-treated samples at the end of experiments. In b, data are means of two independent experiments"}, "RCC III": {"test_system": "RCC III", "assay": "RCC III activity in submitochondrial particles", "type": "biochemical, rat", "set-up": "key to RCC III at 100XCmax: activity relative to DMSO-treated controls (control set as 1 = 100%)", "outline": "as §1"}, "RCC II": {"target": "T1, RCC II (Rattus norvegicus, UniProt P21913+Q641Z9+Q6PCT8+Q920L2)", "T1 construct": "Submitochondrial particles were prepared by subjecting the intact mitochondria to three successive freeze–thaw cycles; from tissue; host or cells: rat liver mitochondria, used as submitochondrial particles", "T1 sequence (Q920L2 35-656)": "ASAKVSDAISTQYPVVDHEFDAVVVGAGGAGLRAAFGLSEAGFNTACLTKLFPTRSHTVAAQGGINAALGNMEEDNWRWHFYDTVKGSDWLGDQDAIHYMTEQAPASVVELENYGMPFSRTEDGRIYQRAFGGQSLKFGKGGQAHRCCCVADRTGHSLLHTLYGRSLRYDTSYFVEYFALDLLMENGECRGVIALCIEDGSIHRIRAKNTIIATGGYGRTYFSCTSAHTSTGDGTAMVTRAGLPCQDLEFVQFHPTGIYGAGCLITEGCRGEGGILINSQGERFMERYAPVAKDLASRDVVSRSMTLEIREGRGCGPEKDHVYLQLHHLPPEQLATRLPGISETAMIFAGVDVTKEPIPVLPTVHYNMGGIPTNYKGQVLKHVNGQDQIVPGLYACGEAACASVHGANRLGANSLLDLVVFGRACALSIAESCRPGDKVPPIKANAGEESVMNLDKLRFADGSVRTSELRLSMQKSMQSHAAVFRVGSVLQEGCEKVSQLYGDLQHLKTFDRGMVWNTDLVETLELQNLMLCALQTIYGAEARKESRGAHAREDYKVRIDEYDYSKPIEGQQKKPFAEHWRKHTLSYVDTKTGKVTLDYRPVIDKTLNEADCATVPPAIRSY", "T1 sequence (P21913 31-282)": "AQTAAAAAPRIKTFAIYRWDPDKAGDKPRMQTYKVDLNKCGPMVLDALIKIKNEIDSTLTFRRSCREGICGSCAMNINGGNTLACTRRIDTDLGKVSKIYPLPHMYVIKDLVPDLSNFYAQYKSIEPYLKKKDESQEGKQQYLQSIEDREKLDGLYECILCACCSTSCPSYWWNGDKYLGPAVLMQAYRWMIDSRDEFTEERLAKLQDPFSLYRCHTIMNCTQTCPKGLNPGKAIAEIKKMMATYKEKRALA", "T1 sequence (Q641Z9 1-169)": "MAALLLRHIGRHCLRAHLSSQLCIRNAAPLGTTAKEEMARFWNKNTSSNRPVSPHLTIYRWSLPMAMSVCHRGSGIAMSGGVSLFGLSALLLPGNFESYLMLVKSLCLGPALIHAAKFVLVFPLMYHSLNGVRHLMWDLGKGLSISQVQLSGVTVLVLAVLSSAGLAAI", "T1 sequence (Q6PCT8 57-159)": "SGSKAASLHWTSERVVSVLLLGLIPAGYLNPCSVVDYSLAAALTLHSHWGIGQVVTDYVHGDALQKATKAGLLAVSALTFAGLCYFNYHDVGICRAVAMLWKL", "assay": "RCC II activity in submitochondrial particles", "type": "biochemical", "set-up": "key: activity relative to DMSO-treated controls (control set as 1 = 100%)", "conditions": "relative to DMSO treated samples", "outline": "as §1"}, "[4]": {"test_system": "isolated rat liver mitochondria", "assay": "Mitochondrial ROS production (CM-H2DCFDA)", "conditions": "DMSO treated samples set as 1"}, "[5]": {"test_system": "isolated rat liver mitochondria", "assay": "Mitochondrial oxygen consumption (glutamate/malate or succinate driven, state 4 and state 3)", "type": "biochemical", "conditions": "DMSO treated samples set as 1", "outline": "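Rat liver mitochondria (1 mg/ml protein) exposed 5 min to kinase inhibitors in 0.1% DMSO, then O2 consumption measured by Clark-type electrode with glutamate/malate or succinate (state 4), ADP added after 3 min (state 3). Rates normalized to 0.1% DMSO controls set to 1.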"}, "RCC V": {"test_system": "RCC V", "assay": "RCC V activity in submitochondrial particles", "type": "biochemical, rat", "outline": "as §1"}, "[6]": {"conditions": "100-fold Cmax, 15 min, DMSO-treated = 100"}, "[7]": {"conditions": "100XCmax, relative to DMSO treated samples"}}, "data": [{"compound": "COc1cc(Nc2c(C#N)cnc3cc(OCCCN4CCN(C)CC4)c(OC)cc23)c(Cl)cc1Cl", "note": "[Bosutinib]", "values": [{"measurement": "Cytochrome c release 1XCmax", "setting": "[1]; 1XCmax", "value": 0}, {"measurement": "Cytochrome c release 2.5XCmax", "setting": "[1]; 2.5XCmax", "value": 0}, {"measurement": "Cytochrome c release 5XCmax", "setting": "[1]; 5XCmax", "value": 0}, {"measurement": "Cytochrome c release 10XCmax", "setting": "[1]; 10XCmax", "value": 0}, {"measurement": "Cytochrome c release 20XCmax", "setting": "[1]; 20XCmax", "value": 0}, {"measurement": "Cytochrome c release 30XCmax", "setting": "[1]; 30XCmax", "value": 0}, {"measurement": "Cytochrome c release 50XCmax", "setting": "[1]; 50XCmax", "value": 0}, {"measurement": "Cytochrome c release 100XCmax", "setting": "[1]; 100XCmax", "value": 0}, {"measurement": "RCC I at 10XCmax", "setting": "RCC I; 10XCmax, relative to DMSO treated samples", "value": 0}, {"measurement": "RCC activity I", "setting": "RCC I; [6]", "value": "88.03 ± 3.01 % of control"}, {"measurement": "RCC I at 100XCmax", "setting": "RCC I; [7]", "value": "88.03±3.01"}, {"measurement": "Cmax", "setting": "[2]", "value": 200, "unit": "ng/mL"}, {"measurement": "MMP measured by Rhodamine 123 at 1XCmax", "setting": "[3]; 1XCmax", "value": 0}, {"measurement": "MMP measured by Rhodamine 123 at 2.5XCmax", "setting": "[3]; 2.5XCmax", "value": 0}, {"measurement": "MMP measured by Rhodamine 123 at 5XCmax", "setting": "[3]; 5XCmax", "value": 0}, {"measurement": "MMP measured by Rhodamine 123 at 10XCmax", "setting": "[3]; 10XCmax", "value": 0}, {"measurement": "MMP measured by Rhodamine 123 at 20XCmax", "setting": "[3]; 20XCmax", "value": 0}, {"measurement": "MMP measured by Rhodamine 123 at 30XCmax", "setting": "[3]; 30XCmax", "value": 0}, {"measurement": "MMP measured by Rhodamine 123 at 50XCmax", "setting": "[3]; 50XCmax", "value": 0}, {"measurement": "MMP measured by Rhodamine 123 at 100XCmax", "setting": "[3]; 100XCmax", "value": 0}, {"measurement": "RCC activity III", "setting": "RCC III; [6]", "value": "101.81 ± 4.43 % of control"}, {"measurement": "RCC III at 100XCmax", "setting": "RCC III; [7]", "value": 0}, {"measurement": "RCC II at 1.0XCmax", "setting": "RCC II; 1.0XCmax", "value": 0}, {"measurement": "RCC II at 2.5XCmax", "setting": "RCC II; 2.5XCmax", "value": 0}, {"measurement": "RCC II at 5XCmax", "setting": "RCC II; 5XCmax", "value": 0}, {"measurement": "RCC II at 10XCmax", "setting": "RCC II; 10XCmax", "value": 0}, {"measurement": "RCC II at 20XCmax", "setting": "RCC II; 20XCmax", "value": 0}, {"measurement": "RCC II at 30XCmax", "setting": "RCC II; 30XCmax", "value": 0}, {"measurement": "RCC II at 50XCmax", "setting": "RCC II; 50XCmax", "value": 0}, {"measurement": "RCC II at 100XCmax", "setting": "RCC II; 100XCmax", "value": 0}, {"measurement": "ROS measured by CM-H2DCFDA at 1XCmax", "setting": "[4]; 1XCmax", "value": 0}, {"measurement": "ROS measured by CM-H2DCFDA at 2.5XCmax", "setting": "[4]; 2.5XCmax", "value": 0}, {"measurement": "ROS measured by CM-H2DCFDA at 5XCmax", "setting": "[4]; 5XCmax", "value": 0}, {"measurement": "ROS measured by CM-H2DCFDA at 10XCmax", "setting": "[4]; 10XCmax", "value": 0}, {"measurement": "ROS measured by CM-H2DCFDA at 20XCmax", "setting": "[4]; 20XCmax", "value": 0}, {"measurement": "ROS measured by CM-H2DCFDA at 30XCmax", "setting": "[4]; 30XCmax", "value": 0}, {"measurement": "ROS measured by CM-H2DCFDA at 50XCmax", "setting": "[4]; 50XCmax", "value": 0}, {"measurement": "ROS measured by CM-H2DCFDA at 100XCmax", "setting": "[4]; 100XCmax", "value": 0}, {"measurement": "State 3 respiration driven by glutamate/malate at 1XCmax", "setting": "[5]; 1XCmax", "value": 0}, {"measurement": "State 3 respiration driven by succinate at 1XCmax", "setting": "[5]; 1XCmax", "value": 0}, {"measurement": "State 4 respiration driven by glutamate/malate at 1XCmax", "setting": "[5]; 1XCmax", "value": 0}, {"measurement": "State 4 respiration driven by succinate at 1XCmax", "setting": "[5]; 1XCmax", "value": 0}, {"measurement": "State 3 respiration driven by glutamate/malate at 2.5XCmax", "setting": "[5]; 2.5XCmax", "value": 0}, {"measurement": "State 3 respiration driven by succinate at 2.5XCmax", "setting": "[5]; 2.5XCmax", "value": 0}, {"measurement": "State 4 respiration driven by glutamate/malate at 2.5XCmax", "setting": "[5]; 2.5XCmax", "value": 0}, {"measurement": "State 4 respiration driven by succinate at 2.5XCmax", "setting": "[5]; 2.5XCmax", "value": 0}, {"measurement": "State 3 respiration driven by glutamate/malate at 5XCmax", "setting": "[5]; 5XCmax", "value": 0}, {"measurement": "State 3 respiration driven by succinate at 5XCmax", "setting": "[5]; 5XCmax", "value": 0}, {"measurement": "State 4 respiration driven by glutamate/malate at 5XCmax", "setting": "[5]; 5XCmax", "value": 0}, {"measurement": "State 4 respiration driven by succinate at 5XCmax", "setting": "[5]; 5XCmax", "value": 0}, {"measurement": "State 3 respiration driven by glutamate/malate at 10XCmax", "setting": "[5]; 10XCmax", "value": 0}, {"measurement": "State 3 respiration driven by succinate at 10XCmax", "setting": "[5]; 10XCmax", "value": 0}, {"measurement": "State 4 respiration driven by glutamate/malate at 10XCmax", "setting": "[5]; 10XCmax", "value": 0}, {"measurement": "State 4 respiration driven by succinate at 10XCmax", "setting": "[5]; 10XCmax", "value": 0}, {"measurement": "State 3 respiration driven by glutamate/malate at 20XCmax", "setting": "[5]; 20XCmax", "value": 0}, {"measurement": "State 3 respiration driven by succinate at 20XCmax", "setting": "[5]; 20XCmax", "value": 0}, {"measurement": "State 4 respiration driven by glutamate/malate at 20XCmax", "setting": "[5]; 20XCmax", "value": 0}, {"measurement": "State 4 respiration driven by succinate at 20XCmax", "setting": "[5]; 20XCmax", "value": 0}, {"measurement": "State 3 respiration driven by glutamate/malate at 30XCmax", "setting": "[5]; 30XCmax", "value": 0}, {"measurement": "State 3 respiration driven by succinate at 30XCmax", "setting": "[5]; 30XCmax", "value": 0}, {"measurement": "State 4 respiration driven by glutamate/malate at 30XCmax", "setting": "[5]; 30XCmax", "value": 0}, {"measurement": "State 4 respiration driven by succinate at 30XCmax", "setting": "[5]; 30XCmax", "value": 0}, {"measurement": "State 3 respiration driven by glutamate/malate at 50XCmax", "setting": "[5]; 50XCmax", "value": 0}, {"measurement": "State 3 respiration driven by succinate at 50XCmax", "setting": "[5]; 50XCmax", "value": 0}, {"measurement": "State 4 respiration driven by glutamate/malate at 50XCmax", "setting": "[5]; 50XCmax", "value": 0}, {"measurement": "State 4 respiration driven by succinate at 50XCmax", "setting": "[5]; 50XCmax", "value": 0}, {"measurement": "State 3 respiration driven by glutamate/malate at 100XCmax", "setting": "[5]; 100XCmax", "value": 0}, {"measurement": "State 3 respiration driven by succinate at 100XCmax", "setting": "[5]; 100XCmax", "value": 0}, {"measurement": "State 4 respiration driven by glutamate/malate at 100XCmax", "setting": "[5]; 100XCmax", "value": 0}, {"measurement": "State 4 respiration driven by succinate at 100XCmax", "setting": "[5]; 100XCmax", "value": 0}, {"measurement": "RCC V at 5XCmax", "setting": "RCC V; 5XCmax, relative to DMSO treated samples", "value": 0}, {"measurement": "RCC V at 50XCmax", "setting": "RCC V; 50XCmax, relative to DMSO treated samples", "value": 0}, {"measurement": "RCC activity V", "setting": "RCC V; [6]", "value": "91.53 ± 6.49 % of control"}]}]}
